Test results reported in US10561638B2, “Methods for treating dependence” (Biotie Therapies, Inc., priority 2007, dated 2020).
Entries after “also recorded” stand apart in the source; their conditions may differ.

Assays:
[1] = tested on: aortic contractile response to phenylephrine; test: Aortic contractile response in vitro to phenylephrine after 21 days treatment; type: in vivo, spontaneously hypertensive rats; details: 10 mg/kg p.o. daily for 21 days
Text: The aortic contractile response in vitro to phenylephrine is impaired in spontaneously hypertensive rats (SHRs) relative to normotensive Wistar-Kyoto rats.

SHRs = test: 30-day radio-telemetry study in SHRs; details: for blood pressure: hydrochloride
[2] = tested on: tissue norepinephrine and dopamine levels; test: Tissue catecholamines in SHRs after single dose (dose response, time course); type: in vivo, spontaneously hypertensive rats; details: 6.2 mg/kg oral or i.v., 0.5 to 4 hours
[3] = tested on: left ventricular [3H] CGP-12177 binding sites; test: [3H] CGP-12177 saturation binding in left ventricle membranes of treated dogs; design: species or system beagle dogs; details: 10 mg/kg/day for 4.5 days
Procedure: Ventricles were homogenized in 50 mM Tris-HCl, 5 mM Na2EDTA buffer (pH 7.4 at 4° C.) using a Polytron P-10 tissue disrupter (setting 10, 2×15 second bursts). Homogenates were centrifuged at 500×g for 10 minutes and the supernatants stored on ice. The pellets were washed by resuspension and centrifugation at 500×g and the supernatants combined. The combined supernatants were centrifuged at 48,000×g for 20 minutes. The pellets were washed by resuspension and centrifugation once in homogenizing buffer and twice in 50 mM Tris-HCl, 0.5 mM EDTA buffer (pH 7.4 at 4° C.). Membranes were stored at −70° C. until required. Saturation experiments were conducted using [^3H] CGP-12177 in buffer containing 50 mM Tris-HCl, 0.5 mM EDTA (pH 7.4 at 32° C.). Non-specific binding was defined by 10 μM isoproterenol. Total bound, non-specific bound and total count tubes were set up for eight concentrations of [^3H] […] Aquasol scintillation fluid was added to each vial and radioactivity determined by liquid scintillation counting. Saturation binding isotherms were analyzed after first converting total ligand concentrations to free ligand concentrations (total−bound=free). […] Tissue catecholamine levels were analyzed by comparing nepicastat-treated groups with the placebo (control) treated groups. […] Additionally, a linear orthogonal contrast was calculated for all three doses within the context of a one-way ANOVA. […]

[4] = tested on: mesenteric artery catecholamines and sympathetically-evoked responses; test: Anesthetized beagle dogs, 30 mg/kg intraduodenally; type: in vivo
[5] = tested on: tissue noradrenaline and dopamine content; test: Tissue catecholamines in beagle dogs dosed b.i.d. for 5 days; type: in vivo; details: for maximal increase in DA/NE ratio: 5 mg/kg b.i.d.; for decrease in noradrenaline / increase in dopamine: 5 mg/kg b.i.d. po
Procedure: Male beagle dogs (10-16 kg, Marshall Farms USA Inc, North Rose, N.Y., USA) were also used in in vivo studies. On the day of the study, dogs were weighed and randomly assigned to be orally dosed with either empty capsules (control) or the appropriate dose of nepicastat (0.05, 0.5, 1.5 or 5 mg·kg^−1; po, b.i.d.) for 5 days. At six hours following the first dose on day-5, the dogs were euthanized with pentobarbital and the tissues (cerebral cortex, renal artery, left ventricle) were rapidly harvested. The tissues were subsequently processed and analyzed for noradrenaline and dopamine.
Nepicastat was used in in vivo biochemical studies to study the effects in spontaneously hypertensive rats (SHRs) and normal beagle dogs. On the day of the study, the animals were weighed and randomly assigned to receive either placebo (vehicle) or the appropriate dose of nepicastat. Each rat was dosed orally three times, 12 h apart, beginning in the morning. At 6 h after the third dose, the rats were anesthetized with halothane, decapitated, and the tissues (cerebral cortex, mesenteric artery and left ventricle) were rapidly harvested, weighed, placed in iced 0.4 M perchloric acid, frozen in liquid nitrogen and stored at −70° C. until analysis. Tissue NE and DA concentrations were assayed by HPLC using electrochemical detection. Male beagle dogs (10-16 kg, Marshall Farms USA Inc, North Rose, N.Y.) were used in the study. On the day of the study, dogs were randomly assigned to receive either placebo (empty capsule) or the appropriate dose of nepicastat. Each dog was dosed twice a day for 4.5 days. 6 h after the first dose on day 5, the dogs were euthanized with pentobarbital and the tissues (cerebral cortex. renal artery, left ventricle) harvested, weighed, placed in iced 0.4 M perchloric acid, frozen in liquid nitrogen and stored at −70° C. until analysis. Tissue NE and DA concentrations were assayed by HPLC using electrochemical detection.

acetyl CoA synthetase = test: Enzyme selectivity assay; type: biochemical
Procedure: (§1) The activity of nepicastat at twelve selected enzymes and receptors was determined using established assays. Binding data were analyzed by iterative curve-fitting to a four parameter logistic equation. Ki values were calculated from IC50 values using the Cheng-Prusoff equation. Enzyme inhibitory activity was expressed as IC50 (concentration required to produce 50% inhibition of enzyme activity).
(§2) The activity of nepicastat at eleven different enzymes was determined using established assays. The affinity of nepicastat for thirteen selected receptors was determined by radioligand binding assays using standard filtration techniques and membrane preparations. Binding data were analyzed by iterative curve fitting to a four parameter logistic equation. Ki values were calculated using the Cheng-Prusoff equation.

protein kinase C = test: Enzyme selectivity assay; type: biochemical
Procedure: as §1, §2

phospholipase A2 = test: Enzyme selectivity assay; type: biochemical
Procedure: as §1, §2

[6] = biological target: acyl CoA-cholesterol acyl transferase; test: Enzyme selectivity assay; type: biochemical
Procedure: as §1, §2

[7] = biological target: Ca2+/calmodulin protein kinase II; test: Enzyme selectivity assay; type: biochemical
Procedure: as §1, §2

Cl.NCc1c[nH]c(=S)n1[C@H]1CCc2c(F)cc(F)cc2C1 [nepicastat, (S)-5-Aminomethyl-1-(5,7-difluoro-1,2,3,4-tetrahydronaphth-2-yl)-2,3-dihydro-2-thioxo-1H-imidazole hydrochloride]
phenylephrine responsiveness of aorta [1]: restored phenylephrine responsiveness
peak decrease in mean blood pressure (SHRs; 30 mg/kg/d, day 3): −20 mmHg
peak antihypertensive response on day 1 (SHRs; 100 mg/kg, 21 hr after dosing): −29 mmHg
blood pressure (SHRs; 3 and 10 mg/kg/d for 30 days): no significant effects; also recorded: did not significantly affect blood pressure
persistence of blood pressure effect after a single dose (SHRs; 30 and 100 mg/kg/d): 24 h
blood pressure (SHRs; 30 and 100 mg/kg/d for 30 days): significantly lowered blood pressure; also recorded: significantly reduced blood pressure
antihypertensive effect of mono-administration (SHRs; enalapril 1 mg/kg or nepicastat 30 mg/kg (Series III)): only a small antihypertensive effect
relation of deaths to treatment (SHRs; four deaths in four series): appeared unrelated to the treatment of nepicastat
cardiac hypertrophy / left ventricular mass (SHRs; nepicastat 3-100 mg/kg): did not affect the cardiac hypertrophy
mesenteric artery catecholamines [2]: significantly decreased norepinephrine and increased dopamine and the dopamine/norepinephrine ratio
left ventricular binding, treated vs vehicle group [3]: no difference
responses to renal nerve stimulation and carotid artery occlusion ([4]; 30 mg/kg intraduodenally, up to 5 hours): did not significantly inhibit
mesenteric artery catecholamines ([4]; 5 hours after 30 mg/kg intraduodenally): significant decrease in norepinephrine levels and an increase in the dopamine/norepinephrine ratio
maximal increase in DA/NE ratio ([5]; cerebral cortex): 80 fold
decrease in noradrenaline ([5]; cerebral cortex): 96%
increase in dopamine ([5]; cerebral cortex): 166%
maximal increase in DA/NE ratio ([5]; left ventricle): 151 fold
decrease in noradrenaline ([5]; left ventricle): 91%
increase in dopamine ([5]; left ventricle): 700%
maximal increase in DA/NE ratio ([5]; renal artery): 95 fold
decrease in noradrenaline ([5]; renal artery): 88%
increase in dopamine ([5]; renal artery): 627%
doses at which catecholamine changes attained significance (p<0.05) ([5]; renal artery, left ventricle, cerebral cortex): ≥ 0.1 mg/kg/day
IC50 (acetyl CoA synthetase): > 10 µM
IC50 (protein kinase C): > 10 µM
IC50 (phospholipase A2): > 10 µM
IC50 [6]: > 10 µM
IC50 [7]: > 10 µM
